We go through 5 substances from patent US8501910B2, “Protein sweetener” (Wisconsin Alumni Research Foundation, priority 2007, dated 2013).

This assay has as its system humans. The experiment in a line: Human taste panel scoring sweetness on a magnitude labeled scale. Type of assay: in vivo. To be noted: for sweetness potency: FIG. 1, human taste panel, varied concentrations diluted in water, compared for the weight being tested. The source says:
To test the sweetness potency of our peptides we tested human perception of sweetness against known controls using varied concentrations of the protein (or other substance) being diluted in water. In the taste panel, humans were requested to score the sweetness sensations of the stimuli with a magnitude labeled scale in accordance with the techniques of B. Green et al., 21 Chemical Senses 323 (1996) (e.g. barely detectable; weak; moderate; strong; very strong; strongest imaginable).
We first gave those testers a sample of pure water with 2-10% sucrose as a calibration exercise two hours before protein testing. After the sucrose testing, they rinsed their mouth out thoroughly. The normal protocol included applying about 125 μI of the substance being tasted to the tongue, with the tested material kept in the mouth for about a minute.

As for “SEQ ID NO. 6: Brazzein variant Y53H: tyrosine at position 53 of SEQ ID NO: 1 replaced (DKCKKVYENYPVSKCQLANQCNYDCKLKKHARSGECFYDEKRNLQCICDYCEH)”, the sweetness potency entry is given as “significantly higher sweetness potency than sucrose”. With “SEQ ID NO. 4: Brazzein variant with tyrosine at position 53 of SEQ ID NO: 1 replaced by another amino acid (probably Phe) (DKCKKVYENYPVSKCQLANQCNYDCKLKKHARSGECFYDEKRNLQCICDYCEF)”, for the setting “tested by one individual observer, not a complete panel”, the “sweetness potency (individual observer)” value is on record as “results similar to those for SEQ ID NO.5”.

Consider “SEQ ID NO. 7: Brazzein variant with Ile Ile inserted at the N terminus of wild type Brazzein (IIDKCKKVYENYPVSKCQLANQCNYDCKLNKHARSGECFYDEKRNLQCICDYCEY)”, for which the sweetness potency result is recorded as “significantly higher sweetness potency than either sucrose or wild type Brazzein”. On to “SEQ ID NO. 8: Brazzein variant with Gly Pro inserted at the N terminus of wild type Brazzein (GPDKCKKVYENYPVSKCQLANQCNYPCKLNKHARSGECFYDEKRNLQCICDYCEY)”, for which the sweetness potency result is recorded as “significantly higher sweetness potency than either sucrose or wild type Brazzein”. Same read-out and setting: under “SEQ ID NO. 5: Brazzein variant Y53W: tyrosine at position 53 of SEQ ID NO: 1 replaced (DKCKKVYENYPVSKCQLANQCNYDCKLKKHARSGECFYDEKRNLQCICDYCEW)” stands “significantly higher sweetness potency than either sucrose or wild type Brazzein”.
